Results on 8 molecules are retold here after US11034666B2, “Anti-inflammatory and antitumor 2-oxothiazoles and 2-oxothiophenes compounds” (Avexxin AS, priority 2013, dated 2021).

The target of experiment [1] is T1, human GIVA cPLA2 (Homo sapiens, UniProt P47712).
T1 sequence (P47712 1-749): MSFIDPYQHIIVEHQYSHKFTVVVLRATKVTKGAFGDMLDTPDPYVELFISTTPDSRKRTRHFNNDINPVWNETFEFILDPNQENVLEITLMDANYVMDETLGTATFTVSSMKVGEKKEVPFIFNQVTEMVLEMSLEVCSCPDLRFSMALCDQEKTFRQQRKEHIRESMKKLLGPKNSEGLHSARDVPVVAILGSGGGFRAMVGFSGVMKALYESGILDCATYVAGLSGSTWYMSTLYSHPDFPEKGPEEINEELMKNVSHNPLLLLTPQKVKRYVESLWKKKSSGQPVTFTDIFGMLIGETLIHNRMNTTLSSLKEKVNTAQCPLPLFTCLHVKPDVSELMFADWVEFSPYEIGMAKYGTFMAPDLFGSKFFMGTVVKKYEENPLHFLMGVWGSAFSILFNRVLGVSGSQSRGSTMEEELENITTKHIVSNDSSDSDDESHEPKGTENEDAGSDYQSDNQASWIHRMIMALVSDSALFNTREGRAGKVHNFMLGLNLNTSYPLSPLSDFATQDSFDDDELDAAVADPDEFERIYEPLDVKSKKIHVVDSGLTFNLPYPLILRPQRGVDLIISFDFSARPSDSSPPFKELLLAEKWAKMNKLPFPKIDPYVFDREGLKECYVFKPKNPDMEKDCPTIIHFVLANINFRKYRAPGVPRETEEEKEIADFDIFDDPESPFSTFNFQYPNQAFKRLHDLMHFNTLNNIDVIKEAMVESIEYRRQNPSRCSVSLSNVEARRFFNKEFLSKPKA
Nature of the experiment: In vitro vesicle assay, cPLA2. The class given is biochemical. On the procedure: The effect of the oxothiazoles synthesized on GIVA cPLA2 was measured in vesicles as previously described^51,52 with modifications.^53 The results are presented in Table 6 and are in full agreement with those using the micellar assay. […] From both assays, it is clear that the introduction of the ethyl ester group directly on the heterocyclic ring substantially increases the potency of inhibition. This group presumably develops additional interactions within the enzyme's active site. Comparing the results obtained in mixed micelles and in vesicles is obvious that Compound A stands out in this series of oxothiazoles
GIVA cPLA2 was measured as described^51,52 with modifications.^53 In short, recombinant human GIVA cPLA2 enzyme was pre-incubated with DMSO (1%) with or without inhibitor in assay buffer (80 sec at 37° C., 10 min at 25° C.). Lipid vesicles of L-α-1-palmitoyl-2-arachidonyl-[arachidonyl-1-^14C]-phosphatidylcholine (4.3 nmol) were dried under a steam of N2 (g). The dried lipid was re-suspended in 2 ml assay buffer and sonicated twice (7 min, output 3.5 and 50% duty cycles, on ice) in a Branson Sonifier 250 (Branson Ultrasonic Corporation, Danbury, Conn.). Sonicated lipid (0.2 μM) was added to the reaction and incubated for 1 h at 37° C. followed by addition of a chloroform/methanol stop buffer to terminate the enzymatic reaction. The reaction mixture was separated by centrifugation (5 min, 1640×g). The lower phase was transferred to a glass tube and dried under a steam of N2 (g), re-suspended in chloroform/methanol (9:1, by volume) and applied to a silica gel. Free [1-^14C]arachidonic acid and, L-α-1-palmitoyl-2-arachidonyl-[arachidonyl-1-^14C]-phosphatidylcholine were separated by thin layer chromatography and analyzed as previously described.^54

For experiment [2], the target named is T1, human GIVA cPLA2. As to the kind of experiment: In vitro mixed micelle assay, GIVA cPLA2. It is filed as biochemical. Conditions: for inhibition at 0.091 mole fraction: 0.091 mole fraction of inhibitor, read-out: GIVA cPLA2 % Inhib; for inhibition of GIVA cPLA2 (in words): mixed micelle assay, comment on Table 6. How it is done: At first, the percent of inhibition for each PLA2 enzyme at 0.091 mole fraction of each inhibitor was determined. […] The XI(50) is the mole fraction of the inhibitor in the total substrate interface required to inhibit the enzyme activity by 50%. […] (ii) GVI iPLA2 substrate mixed-micelles were composed of 400 μM Triton X-100, 98.3 μM PAPC, and 1.7 μM ^14C-labeled PAPC in buffer containing 100 mM HEPES, pH 7.5, 2 mM ATP, and 4 mM DTT; (iii) GV sPLA2 substrate mixed-micelles were composed of 400 μM Triton X-100, 98.3 μM PAPC, and 1.7 μM ^14C-labeled PAPC in buffer containing 50 mMTris, pH 8.0, and 5 mM […] CaCl2.

Experiment [3] relates to OA release in SW982 cells. Nature of the experiment: Ex vivo cellular oleic acid (OA) release assay, IL-1β stimulated. It is filed as cell-based. The settings on record: Homo sapiens; SW982 synoviocytes; 4 h IL-1β stimulation; % inhibition at 10 pM oxothiazole (so in the source); read-out: OA release % Inhib. How it is done:
The effect of the oxothiazoles synthesized on the release of AA and OA in synoviocytes was evaluated as previously described.^54 The percent inhibition of AA and OA was determined at a 10 μM inhibitor concentration, while for the determination of the IC50 value the inhibitors were tested in a 0-20 μM range after IL-1β stimulation for 4 h.
The human synovial sarcoma cell line SW982 was from ATCC (UK) and was used as a model system to monitor AA/OA release and activation of GIVA cPLA2. SW982 cells were passaged bi-weekly by routine trypsin detachment and kept in a sub-confluent state. The cells were maintained in Dulbecco's Modified Eagle Medium (DMEM) supplemented with 10% FBS, 0.1 mg/mL gentamicin and 0.3 mg/mL L-glutamine at 37° C. with 10% CO2. For AA release, 5*10^5 cells were seeded pr well in a 48-well per plate format. Experiments were performed at 3 days post-confluency following overnight serum deprivation in serum-free DMEM to ensure differentiation and synchronization of the cells.
AA and OA release was analyzed as previously described.^54 At 2 days post-confluency, SW982 cells were serum-starved and labelled overnight with ^3H-AA (0.4 μCi/ml) and ^14C-OA (0.067 μCi/ml) in serum-free DMEM. Prior to the addition of oxothiazoles, the cells were washed twice with PBS containing fBSA (2 mg/ml) and PBS in order to remove unincorporated radioactivity. Cells were pretreated (1 h) with oxothiazoles prior to IL-1β stimulation (10 ng/mL, 4 h). Following IL-1β stimulation, the supernatants were cleared of detached cells by centrifugation (13000 rpm, 5 min). The release of ^3H-AA and ^14C-OA from the cells was assessed by liquid scintillation counting (LS 6500 Multi-Purpose Scintillation Counter, Beckman Coulter, Inc (USA). Adherent cells were dissolved in 1N NaOH in order to determine incorporated ^3H-AA and ^14C-OA in the cells by liquid scintillation counting. In all experiments, DMSO was included for vehicle control ([…]0.05%).
Following treatments, cells were routinely observed by microscopy to ensure unaltered cell morphology, integrity and viability. The results are given as inhibition of released ^3H-AA and ^14C-OA in the supernatants relative to total ^3H-AA and ^14C-OA incorporated into the cells, from at least three independent experiments performed in triplicates.

Where [4] appears, read: % inhibition at 1 μM oxothiazole, read-out: cPLA2 vesicle assay % Inhib.
The mark [5] stands for this setting: tested 0-5 μM, Tables 2 and 4, read-out: cPLA2 in vitro assay (0-5 μM) IC50.
The mark [6] stands for this setting: vesicles assay, read-out: IC50 on GIVA cPLA2 in vesicles assay.
[7] abbreviates: mixed micelles, mole fraction of inhibitor for 50% inhibition, Table 6.
Where [8] appears, read: inhibitors tested in 0-3 μM range, read-out: cPLA2 vesicle assay IC50 (μm).

The structures appear in SMILES notation. Several values for one entry are separate records, joined by “and”; a condition that tells them apart may be missing. Identical values can stand only once. Like-named read-outs stand apart in the source and are kept apart here.

Turning to `CCCCCCCCc1ccc(OCC(=O)c2nc(C(=O)OC)cs2)cc1` [Compound A, Methyl 2-(2-(4-octylphenoxy)acetyl)thiazole-4-carboxylate], the inhibition at 1 µM in experiment [1] (setting [4]) is 74%. Further, the IC50 (as a rule, the concentration that gives 50% inhibition) in experiment [1] (setting [5]) was around 0.3 µM; in experiment [1] (setting [6]), 0.3 µM. The “GIVA cPLA2 XI(50)” value is 0.011 mole fraction in experiment [2] (Table 2, mole fraction of inhibitor in the total substrate interface for 50% inhibition); 0.011 mole fraction and 0.011 ± 0.005 mole fraction in experiment [2] (setting [7]). The “GIVA cPLA2 % Inhibition” value in experiment [2] (Tables 2 and 4) is recorded as above 90%. Further, the inhibition at 0.091 mole fraction in experiment [2] (mixed micelles, Table 6) is above 90%. In addition, the inhibition at 10 µM in experiment [3] is 40%.
Consider `O=C(COc1ccc(-c2ccccc2)cc1)c1nccs1` [Compound B, 2-(Biphenyl-4-yloxy)-1-(thiazol-2-yl)ethanone], for which the inhibition at 1 µM in experiment [1] (setting [4]) is 26%; in experiment [1] (at 1 μM, printed in the IC50 column of Table 2, read-out: cPLA2 in vitro assay, % inh at 1 μM) it was 35%. The IC50 in experiment [1] (setting [8]) was above 3 µM. In addition, the “inhibition of GIVA cPLA2 (in words)” value in experiment [2] is on record as “did not present any interesting inhibition”. In addition, the inhibition at 0.091 mole fraction in experiment [2] (mixed micelles, Table 6) is 80%. In addition, the inhibition at 10 µM in experiment [3] turned out to be 25%.
Take `O=C(COc1ccc(F)cc1)c1nccs1` [Compound C, 2-(4-Fluorophenoxy)-1-(thiazol-2-yl)ethanone]: in experiment [1] (setting [4]), the inhibition at 1 µM worked out at 7%. Also, the 50% inhibitory concentration (IC50) in experiment [1] (setting [8]) is above 3 µM; in experiment [1] (setting [5]) it was above 5 µM. Also, in experiment [2], the “inhibition of GIVA cPLA2 (in words)” value is given as “did not present any interesting inhibition”. In addition, the inhibition at 0.091 mole fraction in experiment [2] (mixed micelles, Table 6) came to 58%. Moreover, the inhibition at 10 µM in experiment [3] is 25%.
As to `O=C(COc1ccccc1)c1nccs1` [Compound D, 2-Phenoxy-1-(thiazol-2-yl)ethanone], the inhibition at 1 µM in experiment [1] (setting [4]) was determined as 26%. Further, the IC50 in experiment [1] (setting [8]) was above 3 µM; in experiment [1] (setting [5]), above 5 µM. In addition, the “inhibition of GIVA cPLA2 (in words)” value in experiment [2] is given as “did not present any interesting inhibition”. The inhibition at 0.091 mole fraction in experiment [2] (mixed micelles, Table 6) is 40%. Besides, in experiment [3], the inhibition at 10 µM was found to be 20%.
`CCCCCCCCc1ccc(OCC(=O)c2nccs2)cc1` [Compound T, 2-(4-Octylphenoxy)-1-(thiazol-2-yl)ethanone]: the inhibition at 1 µM in experiment [1] (setting [4]) was 43%. For the same molecule, the IC50 in experiment [1] (setting [6]) is 1.2 µM. Besides, the “inhibition of GIVA cPLA2 (in words)” value in experiment [2] was “significant inhibitory activity”. Also, the inhibition at 0.091 mole fraction in experiment [2] (mixed micelles, Table 6) was above 90%. In addition, the “GIVA cPLA2 XI(50)” value in experiment [2] (setting [7]) is 0.02 ± 0.007 mole fraction. The inhibition at 10 µM in experiment [3] was 0%.
On to `CCCCCCCCCCCCOCC(=O)c1nc(C(=O)OCC)cs1` [Compound W, Ethyl 2-(2-(dodecyloxy)acetyl)thiazole-4-carboxylate], for which the inhibition at 1 µM in experiment [1] (setting [4]) was found to be 21%. In experiment [1] (setting [8]), the half-maximal inhibitory concentration (IC50) was above 3 µM. The inhibition at 0.091 mole fraction in experiment [2] (mixed micelles, Table 6) came to 48%. In addition, the inhibition at 10 µM in experiment [3] was 0%.
With `CCCCCCCCCCCCOCC(=O)c1nc(CC(=O)OCC)cs1` [Compound X, Ethyl 2-(2-(2-(dodecyloxy)acetyl)thiazol-4-yl)acetate], the inhibition at 1 µM in experiment [1] (setting [4]) stood at 0%. Also, the “inhibition of GIVA cPLA2 (in words)” value in experiment [2] was “proved inactive”. For the same molecule, the inhibition at 0.091 mole fraction in experiment [2] (mixed micelles, Table 6) came to 49%. The inhibition at 10 µM in experiment [3] was determined as 0%.
As to `CCCCCCCCc1ccc(OCC(=O)c2nc(CC(=O)OCC)cs2)cc1` [Compound Y, Ethyl 2-(2-(2-(4-octylphenoxy)acetyl)thiazol-4-yl)acetate], the inhibition at 1 µM in experiment [1] (setting [4]) was determined as 25%. Besides, the 50% inhibitory concentration (IC50) in experiment [1] (setting [8]) was above 3 µM. Also, in experiment [2], the “inhibition of GIVA cPLA2 (in words)” value is “dramatic loss of the activity”. The inhibition at 0.091 mole fraction in experiment [2] (mixed micelles, Table 6) turned out to be 64%. Further, the inhibition at 10 µM in experiment [3] turned out to be 20%.
